According to patent US8884061B2, “Compositions and methods of use of electron transport system inhibitors” (priority 2006, dated 2014):
Converted amounts (≈) assume the structure as drawn. Read-outs that look alike come from different tables or passages of the source.

Experiments:
Test in all cases: MIC, other bacteria (Table 3)
VRSA 2441-T0044 = format: cell-based, S. aureus
[1] = tested on: S. epidermidis ATCC 12228; format: cell-based
MRSA 2441-05112 = format: cell-based, S. aureus; settings: inoculum size 10^6 CFU/ml
P. mirabilis ATCC 4630 = format: cell-based
MRSE 2442-05110 = format: cell-based, S. epidermidis; settings: inoculum size 10^6 CFU/ml
[2] = tested on: E. faecium NCTC 12203 (VRE); format: cell-based; settings: high level VCM-resistant, Van A, inoculum size 10^6 CFU/ml
E. faecalis ATCC 29212 = format: cell-based
E. coli ATCC 25922 = format: cell-based
MRSE 2442-05030 = format: cell-based, S. epidermidis; settings: inoculum size 10^6 CFU/ml
MRSA 2441-05223 = format: cell-based, S. aureus; settings: inoculum size 10^6 CFU/ml
E. faecium ATCC 49224 = format: cell-based; settings: E. faecium ATCC 49224, GM-resistant, inoculum size 10^6 CFU/ml
S. marsascens ATCC 14756 = format: cell-based; settings: inoculum size 10^6 CFU/ml
[3] = tested on: E. faecalis NCTC 12201 (VRE); format: cell-based; settings: high level VCM-resistant, Van A, inoculum size 10^6 CFU/ml
MRSE 2442-05047 = format: cell-based, S. epidermidis; settings: inoculum size 10^6 CFU/ml
[4] = tested on: E. faecalis ATCC 51299 (VRE); format: cell-based; settings: low level VCM-resistant, Van B, inoculum size 10^6 CFU/ml
S. aureus ATCC 29213 = format: cell-based
MRSE 2442-05118 = format: cell-based, S. epidermidis; settings: inoculum size 10^6 CFU/ml
K. pneumoniae ATCC 27736 = format: cell-based
MRSE 2442-05060 = format: cell-based, S. epidermidis; settings: inoculum size 10^6 CFU/ml
P. aeruginosa ATCC 27853 = format: cell-based
MRSE 2442-05053 = format: cell-based, S. epidermidis; settings: inoculum size 10^6 CFU/ml
MRSA 2441-05262 = format: cell-based, S. aureus; settings: inoculum size 10^6 CFU/ml
MRSA 2441-05129 = format: cell-based, S. aureus; settings: inoculum size 10^6 CFU/ml
[5] = tested on: S. aureus ATCC 43300 (MRSA); format: cell-based; settings: inoculum size 10^6 CFU/ml
MRSA 2441-05104 = format: cell-based, S. aureus; settings: inoculum size 10^6 CFU/ml
VRSA 2441-T0041 = format: cell-based, S. aureus
MRSA 2441-05254 = format: cell-based, S. aureus; settings: inoculum size 10^6 CFU/ml
[6] = Staphylococcus aureus, read-out: MIC
[7] = Staphylococcus epidermidis, read-out: MIC
[8] = Enterococcus faecalis, read-out: MIC

In the case of `COc1cccc(OC)c1C(=O)N[C@@H]1C(=O)N2[C@@H]1SC(C)(C)[C@@H]2C(=O)O` [DMPPC, reference compound], the “MIC” value (VRSA 2441-T0044; VRSA 2441-T0044, low level VCM-resistant, inoculum size 10^6 CFU/ml) is reported as over 400 µg/mL, the “MIC” value ([1]; inoculum size 10^6 CFU/ml) is reported as 1.56 µg/mL (≈ 4.1 µM) and the “MIC” value (MRSA 2441-05112) is reported as 400 µg/mL (≈ 1050 µM). The “MIC” value (P. mirabilis ATCC 4630; inoculum size 10^6 CFU/ml) was over 400 µg/mL, the “MIC” value (MRSE 2442-05110) was 3.13 µg/mL (≈ 8.23 µM) and the “MIC” value [2] was over 400 µg/mL. For the same molecule, the “MIC” value (E. faecalis ATCC 29212; inoculum size 10^6 CFU/ml) was 25 µg/mL (≈ 65.7 µM), the “MIC” value (E. coli ATCC 25922; inoculum size 10^6 CFU/ml) was over 400 µg/mL and the “MIC” value (MRSE 2442-05030) was 1.56 µg/mL (≈ 4.1 µM). For the same molecule, the “MIC” value (MRSA 2441-05223) was 125 µg/mL (≈ 329 µM), the “MIC” value (E. faecium ATCC 49224) was over 400 µg/mL and the “MIC” value (S. marsascens ATCC 14756) was over 400 µg/mL. For the same molecule, the “MIC” value [3] was 100 µg/mL (≈ 263 µM), the “MIC” value (MRSE 2442-05047) was 400 µg/mL (≈ 1050 µM) and the “MIC” value [4] was 50 µg/mL (≈ 131 µM). The “MIC” value (S. aureus ATCC 29213; inoculum size 10^6 CFU/ml) was 1.56 µg/mL (≈ 4.1 µM), the “MIC” value (MRSE 2442-05118) was 200 µg/mL (≈ 526 µM) and the “MIC” value (K. pneumoniae ATCC 27736; inoculum size 10^6 CFU/ml) was over 400 µg/mL. The “MIC” value (MRSE 2442-05060) was 200 µg/mL (≈ 526 µM), the “MIC” value (P. aeruginosa ATCC 27853; inoculum size 10^6 CFU/ml) was over 400 µg/mL and the “MIC” value (MRSE 2442-05053) was 3.13 µg/mL (≈ 8.23 µM). For the same molecule, the “MIC” value (MRSA 2441-05262) was over 400 µg/mL, the “MIC” value (MRSA 2441-05129) was over 400 µg/mL and the “MIC” value [5] was 3.13 µg/mL (≈ 8.23 µM). The “MIC” value (MRSA 2441-05104) was 100 µg/mL (≈ 263 µM), the “MIC” value (VRSA 2441-T0041; VRSA 2441-T0041, low level VCM-resistant, inoculum size 10^6 CFU/ml) was over 400 µg/mL and the “MIC” value (MRSA 2441-05254) was over 400 µg/mL.
`CC1COc2c(N3CCN(C)CC3)c(F)cc3c(=O)c(C(=O)O)cn1c23` (stereo not drawn) [OFLX, ofloxacin, reference compound] was tested, and the MIC (VRSA 2441-T0044; Staphylococcus aureus, VRSA) was 1.25 µg/mL (≈ 3.46 µM), the MIC ([1]; Staphylococcus epidermidis, ATCC12228, inoculum size 10^6 CFU/ml, read-out: MIC) was 0.2 µg/mL (≈ 0.553 µM) and the MIC (MRSA 2441-05112; [6]) was 50 µg/mL (≈ 138 µM). It also gave an MIC (P. mirabilis ATCC 4630; Proteus mirabilis, ATCC4630, inoculum size 10^6 CFU/ml, read-out: MIC) of 0.39 µg/mL (≈ 1.08 µM), an MIC (MRSE 2442-05110; [7]) of 6.25 µg/mL (≈ 17.3 µM) and an MIC ([2]; Enterococcus faecium, read-out: MIC) of 3.13 µg/mL (≈ 8.66 µM). For the same molecule, the MIC (E. faecalis ATCC 29212; Enterococcus faecalis, ATCC29212, inoculum size 10^6 CFU/ml, read-out: MIC) was 1.56 µg/mL (≈ 4.32 µM), the MIC (E. coli ATCC 25922; Escherichia coli, ATCC25922, inoculum size 10^6 CFU/ml, read-out: MIC) was 0.05 µg/mL (≈ 0.138 µM) and the MIC (MRSE 2442-05030; [7]) was 6.25 µg/mL (≈ 17.3 µM). The MIC (MRSA 2441-05223; [6]) was 0.2 µg/mL (≈ 0.553 µM), the MIC (E. faecium ATCC 49224; Enterococcus faecium, ATCC49224, read-out: MIC) was 3.13 µg/mL (≈ 8.66 µM) and the MIC (S. marsascens ATCC 14756; read-out: MIC) was 0.024 µg/mL (≈ 0.0664 µM). For the same molecule, the MIC [3, 8] was 1.56 µg/mL (≈ 4.32 µM), the MIC (MRSE 2442-05047; [7]) was 6.25 µg/mL (≈ 17.3 µM) and the MIC [4, 8] was 1.56 µg/mL (≈ 4.32 µM). For the same molecule, the MIC (S. aureus ATCC 29213; Staphylococcus aureus, ATCC29213, inoculum size 10^6 CFU/ml, read-out: MIC) was 0.2 µg/mL (≈ 0.553 µM), the MIC (MRSE 2442-05118; [7]) was 6.25 µg/mL (≈ 17.3 µM) and the MIC (K. pneumoniae ATCC 27736; Klebsiella pneumoniae, ATCC27736, inoculum size 10^6 CFU/ml, read-out: MIC) was 0.2 µg/mL (≈ 0.553 µM). It also gave an MIC (MRSE 2442-05060; [7]) of 6.25 µg/mL (≈ 17.3 µM), an MIC (P. aeruginosa ATCC 27853; Pseudomonas aeruginosa, ATCC27853, inoculum size 10^6 CFU/ml, read-out: MIC) of 3.13 µg/mL (≈ 8.66 µM) and an MIC (MRSE 2442-05053; [7]) of 6.25 µg/mL (≈ 17.3 µM). The MIC (MRSA 2441-05262; [6]) was 50 µg/mL (≈ 138 µM), the MIC (MRSA 2441-05129; [6]) was 1 µg/mL (≈ 2.77 µM) and the MIC [5, 6] was 0.39 µg/mL (≈ 1.08 µM). It also gave an MIC (MRSA 2441-05104; [6]) of 25 µg/mL (≈ 69.2 µM), an MIC (VRSA 2441-T0041; Staphylococcus aureus, VRSA) of 1.25 µg/mL (≈ 3.46 µM) and an MIC (MRSA 2441-05254; [6]) of 50 µg/mL (≈ 138 µM).
